Counter-ions that a name gives are not always drawn. Like-named read-outs stand apart in the source and are kept apart here. A value given as a limit tells only on which side of the number the result lay.

The results in this text go back to patent US8309554B2 (priority 2008, dated 2012).

In test [1] the test system is H460. Nature of the test: cells. Particulars: for IC50: Homo sapiens, NCI-H460, 2 h. Format: cell-based.
Test [2] deals with HT29. Kind of test: cells. Format: cell-based. Particulars: for IC50: Homo sapiens, HT-29, 2 h.

In general, IC50 refers to the point on the concentration scale where inhibition reaches its midpoint. Regarding `Nc1ccc(CC(c2ccsc2[N+](=O)[O-])S(=O)(=O)Oc2ccc(N(CCCl)CCCl)cc2)cn1` (stereo not drawn) [TH-1255, 3-(4-(N,N-bis-(2-Chloroethyl)amino)phenoxysulfonyl-(2-aminopyridin-5-yl-methyl))methyl-2-nitrothiophene trifluoroacetate], the “H460 HCR: Air/N2” value in test [1] came to 30.7. Also, the half-inhibitory concentration (IC50) in test [1] (read-out: 2 hr Air H460 IC50) was 61.4 µM; in test [1] (read-out: 2 hr N2 H460 IC50), 2 µM; in test [2] (read-out: 2 hr Air HT29 IC50), 204 µM; in test [2] (read-out: 2 hr N2 HT29 IC50) it was 13 µM. In test [2], the “HT29 HCR: Air/N2” value stood at 16.

On to `CS(=O)(=O)N(c1ccc(CC(c2ccsc2[N+](=O)[O-])S(=O)(=O)Oc2ccc(N(CCCl)CCCl)cc2)cn1)S(C)(=O)=O` (stereo not drawn) [TH-1257], for which, in test [1], the “H460 HCR: Air/N2” value worked out at 424.0. In addition, the IC50 is 212 µM in test [1] (read-out: 2 hr Air H460 IC50), 0.5 µM in test [1] (read-out: 2 hr N2 H460 IC50), greater than 300 µM in test [2] (read-out: 2 hr Air HT29 IC50) and greater than 300 µM in test [2] (read-out: 2 hr N2 HT29 IC50).

As for `CC(=O)Nc1ccc(CC(c2ccsc2[N+](=O)[O-])S(=O)(=O)Oc2ccc(N(CCCl)CCCl)cc2)cn1` (stereo not drawn) [TH-1271], in test [1], the “H460 HCR: Air/N2” value turned out to be 236. For the same compound, the 50% inhibitory concentration (IC50) in test [1] (read-out: 2 hr Air H460 IC50) is 236 µM; in test [1] (read-out: 2 hr N2 H460 IC50), 1 µM; in test [2] (read-out: 2 hr Air HT29 IC50) it was 977 µM; in test [2] (read-out: 2 hr N2 HT29 IC50), 760 µM. In addition, the “HT29 HCR: Air/N2” value in test [2] turned out to be 1.3.

With `O=[N+]([O-])c1sccc1C(CCS(=O)(=O)c1ccccc1)S(=O)(=O)Oc1ccc(N(CCCl)CCCl)cc1` (stereo not drawn) [TH-1278], the “H460 HCR: Air/N2” value in test [1] is 205. For the same compound, the IC50 in test [1] (read-out: 2 hr Air H460 IC50) is 61.4 µM; in test [1] (read-out: 2 hr N2 H460 IC50) it was 0.3 µM; in test [2] (read-out: 2 hr Air HT29 IC50) it was greater than 1000 µM; in test [2] (read-out: 2 hr N2 HT29 IC50), greater than 1000 µM.

As to `O=[N+]([O-])c1sccc1C(CCS(=O)(=O)Oc1ccccc1)S(=O)(=O)Oc1ccc(N(CCCl)CCCl)cc1` (stereo not drawn) [TH-1292, 3-(4-(N,N-bis-(2-Chloroethyl)amino)phenoxysulfonyl-(2-phenoxysulfonylethyl))methyl-2-nitrothiophene], the “H460 HCR: Air/N2” value in test [1] is listed as 127.7. The IC50 in test [1] (read-out: 2 hr Air H460 IC50) was determined as 195 µM; in test [1] (read-out: 2 hr N2 H460 IC50), 1.5 µM; in test [2] (read-out: 2 hr Air HT29 IC50) it was 760 µM; in test [2] (read-out: 2 hr N2 HT29 IC50) it was 4.8 µM. The “HT29 HCR: Air/N2” value in test [2] is 158.

Consider `O=[N+]([O-])c1sccc1C(CCS(=O)(=O)N1CCOCC1)S(=O)(=O)Oc1ccc(N(CCCl)CCCl)cc1` (stereo not drawn) [TH-1303], for which the “H460 HCR: Air/N2” value in test [1] is reported as 69. The half-inhibitory concentration (IC50) in test [1] (read-out: 2 hr Air H460 IC50) was 75.5 µM; in test [1] (read-out: 2 hr N2 H460 IC50) it was 1.1 µM; in test [2] (read-out: 2 hr Air HT29 IC50), greater than 300 µM; in test [2] (read-out: 2 hr N2 HT29 IC50), greater than 300 µM.

`O=[N+]([O-])c1sccc1C(CNS(=O)(=O)c1ccc(F)cc1)S(=O)(=O)Oc1ccc(N(CCCl)CCCl)cc1` (stereo not drawn) [TH-1311]: in test [1], the “H460 HCR: Air/N2” value came to 143. Further, the concentration for half-maximal inhibition (IC50) in test [1] (read-out: 2 hr Air H460 IC50) was 57.3 µM; in test [1] (read-out: 2 hr N2 H460 IC50), 0.4 µM; in test [2] (read-out: 2 hr Air HT29 IC50), greater than 300 µM; in test [2] (read-out: 2 hr N2 HT29 IC50) it was greater than 300 µM.

Turning to `CN(C)c1ccc(CC(c2ccsc2[N+](=O)[O-])S(=O)(=O)Oc2ccc(N(CCCl)CCCl)cc2)cn1` (stereo not drawn) [TH-1316], the “H460 HCR: Air/N2” value in test [1] came out at 179. Further, the IC50 is 179 µM in test [1] (read-out: 2 hr Air H460 IC50), 1 µM in test [1] (read-out: 2 hr N2 H460 IC50), greater than 300 µM in test [2] (read-out: 2 hr Air HT29 IC50) and greater than 300 µM in test [2] (read-out: 2 hr N2 HT29 IC50).

For `O=[N+]([O-])c1sccc1C(Cc1ccc(OCCO)cc1)S(=O)(=O)Oc1ccc(N(CCCl)CCCl)cc1` (stereo not drawn) [TH-1325], in test [1], the “H460 HCR: Air/N2” value is recorded as 929. Moreover, the IC50 is 92.9 µM in test [1] (read-out: 2 hr Air H460 IC50), 0.1 µM in test [1] (read-out: 2 hr N2 H460 IC50), greater than 300 µM in test [2] (read-out: 2 hr Air HT29 IC50) and greater than 300 µM in test [2] (read-out: 2 hr N2 HT29 IC50).

`CN1CCN(S(=O)(=O)CCC(c2ccsc2[N+](=O)[O-])S(=O)(=O)Oc2ccc(N(CCCl)CCCl)cc2)CC1` (stereo not drawn) [TH-1326, 3-(4-(N,N-bis-(2-Chloroethyl)amino)phenoxysulfonyl-(2-((N-methylpiperazin-4-yl)sulfonyl)ethyl))methyl-2-nitrothiophene]: in test [1], the “H460 HCR: Air/N2” value is given as 42. Further, the IC50 was 16.6 µM in test [1] (read-out: 2 hr Air H460 IC50), 0.4 µM in test [1] (read-out: 2 hr N2 H460 IC50), 126 µM in test [2] (read-out: 2 hr Air HT29 IC50) and 2.6 µM in test [2] (read-out: 2 hr N2 HT29 IC50). Moreover, the “HT29 HCR: Air/N2” value in test [2] is listed as 48.

For `O=C1c2ccccc2C(=O)N1CC(c1ccsc1[N+](=O)[O-])S(=O)(=O)Oc1ccc(N(CCCl)CCCl)cc1` (stereo not drawn) [TH-1327], the “H460 HCR: Air/N2” value in test [1] stood at 178. The IC50 in test [1] (read-out: 2 hr Air H460 IC50) was 107 µM; in test [1] (read-out: 2 hr N2 H460 IC50), 0.6 µM; in test [2] (read-out: 2 hr Air HT29 IC50), greater than 1000 µM; in test [2] (read-out: 2 hr N2 HT29 IC50), greater than 1000 µM.

For `CC(C)Nc1ccc(CC(c2ccsc2[N+](=O)[O-])S(=O)(=O)Oc2ccc(N(CCCl)CCCl)cc2)cn1` (stereo not drawn) [TH-1328], in test [1], the “H460 HCR: Air/N2” value came to 187. In addition, the IC50 in test [1] (read-out: 2 hr Air H460 IC50) is 261 µM; in test [1] (read-out: 2 hr N2 H460 IC50), 1.4 µM; in test [2] (read-out: 2 hr Air HT29 IC50), 151 µM; in test [2] (read-out: 2 hr N2 HT29 IC50), 46 µM. For the same compound, the “HT29 HCR: Air/N2” value in test [2] stood at 3.3.

Turning to `Nc1ccc(CC(c2ccsc2[N+](=O)[O-])S(=O)(=O)Oc2ccc(N(CCCl)CCCl)cc2)cc1.O=C(O)C(F)(F)F` (stereo not drawn) [TH-1330, 3-(4-(N,N-bis-(2-Chloroethyl)amino)phenoxysulfonyl-(4-aminophenylmethyl))methyl-2-nitrothiophene], the “H460 HCR: Air/N2” value in test [1] was determined as 253. For the same compound, the IC50 in test [1] (read-out: 2 hr Air H460 IC50) is 228 µM; in test [1] (read-out: 2 hr N2 H460 IC50), 0.9 µM; in test [2] (read-out: 2 hr Air HT29 IC50), 186 µM; in test [2] (read-out: 2 hr N2 HT29 IC50), 9 µM. Also, the “HT29 HCR: Air/N2” value in test [2] turned out to be 21.

As to `O=[N+]([O-])c1sccc1C(Cn1nnc2ccccc21)S(=O)(=O)Oc1ccc(N(CCCl)CCCl)cc1` (stereo not drawn) [TH-1343, 3-(4-(N,N-bis-(2-Chloroethyl)amino)phenoxysulfonyl-(benzotriazol-1-yl-methyl))methyl-2-nitrothiophene], the “H460 HCR: Air/N2” value in test [1] was determined as 133. Moreover, the IC50 in test [1] (read-out: 2 hr Air H460 IC50) was 93 µM; in test [1] (read-out: 2 hr N2 H460 IC50) it was 0.7 µM; in test [2] (read-out: 2 hr Air HT29 IC50), greater than 1000 µM; in test [2] (read-out: 2 hr N2 HT29 IC50), 24 µM. The “HT29 HCR: Air/N2” value in test [2] is on record as greater than 4.2.

For `CC(=O)Nc1ccc(CC(c2ccsc2[N+](=O)[O-])S(=O)(=O)Oc2ccc(N(CCCl)CCCl)cc2)cc1` (stereo not drawn) [TH-1346], the “H460 HCR: Air/N2” value in test [1] amounted to 200. In addition, the concentration for half-maximal inhibition (IC50) in test [1] (read-out: 2 hr Air H460 IC50) is 220 µM; in test [1] (read-out: 2 hr N2 H460 IC50) it was 1.1 µM; in test [2] (read-out: 2 hr Air HT29 IC50), 145 µM; in test [2] (read-out: 2 hr N2 HT29 IC50), 46 µM. Further, the “HT29 HCR: Air/N2” value in test [2] was found to be 3.2.

For the compound `O=[N+]([O-])c1sccc1C(CCS(=O)(=O)N1CCC(O)CC1)S(=O)(=O)Oc1ccc(N(CCCl)CCCl)cc1` (stereo not drawn) [TH-1347], the “H460 HCR: Air/N2” value in test [1] was determined as 76. The IC50 is 136 µM in test [1] (read-out: 2 hr Air H460 IC50), 1.8 µM in test [1] (read-out: 2 hr N2 H460 IC50), 398 µM in test [2] (read-out: 2 hr Air HT29 IC50) and 20 µM in test [2] (read-out: 2 hr N2 HT29 IC50). The “HT29 HCR: Air/N2” value in test [2] is recorded as 20.

Take `O=[N+]([O-])c1sccc1C(Cc1ccccn1)S(=O)(=O)Oc1ccc(N(CCCl)CCCl)cc1` (stereo not drawn) [TH-1357]: the “H460 HCR: Air/N2” value in test [1] was determined as 41. In addition, the IC50 is 127 µM in test [1] (read-out: 2 hr Air H460 IC50), 3.1 µM in test [1] (read-out: 2 hr N2 H460 IC50), greater than 1000 µM in test [2] (read-out: 2 hr Air HT29 IC50) and 500 µM in test [2] (read-out: 2 hr N2 HT29 IC50). Also, the “HT29 HCR: Air/N2” value in test [2] is on record as greater than 2.

With `CN(C)S(=O)(=O)CCC(c1ccsc1[N+](=O)[O-])S(=O)(=O)Oc1ccc(N(CCCl)CCCl)cc1` (stereo not drawn) [TH-1360], the “H460 HCR: Air/N2” value in test [1] is listed as roughly 70. The IC50 in test [1] (read-out: 2 hr Air H460 IC50) is roughly 300 µM; in test [1] (read-out: 2 hr N2 H460 IC50), 4.3 µM; in test [2] (read-out: 2 hr Air HT29 IC50) it was greater than 1000 µM; in test [2] (read-out: 2 hr N2 HT29 IC50), greater than 1000 µM.

For `COc1ccc(CC(c2ccsc2[N+](=O)[O-])S(=O)(=O)Oc2ccc(N(CCCl)CCCl)cc2)c(OC)n1` (stereo not drawn) [TH-1362], in test [1], the “H460 HCR: Air/N2” value turned out to be 46. Besides, the IC50 is 253 µM in test [1] (read-out: 2 hr Air H460 IC50), 5.5 µM in test [1] (read-out: 2 hr N2 H460 IC50), greater than 1000 µM in test [2] (read-out: 2 hr Air HT29 IC50) and greater than 1000 µM in test [2] (read-out: 2 hr N2 HT29 IC50).
